# Experiments:
# Adenosine receptor A2a [1] = target: T1, Adenosine receptor A2a (Homo sapiens, UniProt P29274); assay: Displacement of [3H]CGS21680 from human adenosine A2A receptor expressed in HEK293 cells after 60 mins by liquid scintillation counting; format: cell-based
# Adenosine receptor A3 [2] = target: T2, Adenosine receptor A3 (Homo sapiens, UniProt P0DMS8); assay: Displacement of [125I]AB-MECA from human recombinant adenosine A3 receptor expressed in CHO cells after 60 mins by gamma counting
# T2 sequence (P0DMS8 whole entry): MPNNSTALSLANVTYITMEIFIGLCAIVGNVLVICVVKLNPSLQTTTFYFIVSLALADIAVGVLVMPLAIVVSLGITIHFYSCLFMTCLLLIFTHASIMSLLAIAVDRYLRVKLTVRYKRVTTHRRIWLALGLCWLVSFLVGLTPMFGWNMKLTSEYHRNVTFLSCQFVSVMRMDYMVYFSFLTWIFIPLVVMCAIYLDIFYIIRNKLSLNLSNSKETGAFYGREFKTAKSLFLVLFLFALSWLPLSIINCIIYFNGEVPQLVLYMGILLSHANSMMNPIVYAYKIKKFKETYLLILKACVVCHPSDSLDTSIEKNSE
# Adenosine receptor A1 [3] = target: T3, Adenosine receptor A1 (Homo sapiens, UniProt P30542); assay: Displacement of [3H]NECA from human recombinant adenosine A1 receptor expressed in CHO cells after 60 mins by liquid scintillation counting; format: cell-based
# T3 sequence (P30542 whole entry): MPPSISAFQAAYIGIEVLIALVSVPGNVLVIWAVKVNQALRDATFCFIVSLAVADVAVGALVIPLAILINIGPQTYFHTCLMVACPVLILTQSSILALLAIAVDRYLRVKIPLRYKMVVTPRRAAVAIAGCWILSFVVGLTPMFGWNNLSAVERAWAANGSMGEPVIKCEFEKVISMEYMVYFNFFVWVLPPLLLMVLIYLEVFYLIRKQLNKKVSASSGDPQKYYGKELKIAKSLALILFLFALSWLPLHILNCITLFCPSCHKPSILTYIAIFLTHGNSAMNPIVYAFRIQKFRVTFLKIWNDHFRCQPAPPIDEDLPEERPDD
# [4] = target: T4, Adenosine receptor A3 (Homo sapiens) (UniProt P0DMS8); assay: Agonist activity at human recombinant adenosine A3 receptor expressed in CHO cells assessed as inhibition of forskolin-stimulated cAMP production at 10 uM treated 45 mins before forskolin challenge measured after 15 mins by radioimmunoassay relative to NECA; format: functional, cell-based
# T4 sequence (whole entry): T2 sequence (P0DMS8 whole entry)
# Adenosine receptor A3 [5] = target: T5, Adenosine receptor A3 (Rattus norvegicus, UniProt P28647); assay: Binding affinity to rat adenosine A3 receptor expressed in CHO cells; format: cell-based
# T5 sequence (P28647 whole entry): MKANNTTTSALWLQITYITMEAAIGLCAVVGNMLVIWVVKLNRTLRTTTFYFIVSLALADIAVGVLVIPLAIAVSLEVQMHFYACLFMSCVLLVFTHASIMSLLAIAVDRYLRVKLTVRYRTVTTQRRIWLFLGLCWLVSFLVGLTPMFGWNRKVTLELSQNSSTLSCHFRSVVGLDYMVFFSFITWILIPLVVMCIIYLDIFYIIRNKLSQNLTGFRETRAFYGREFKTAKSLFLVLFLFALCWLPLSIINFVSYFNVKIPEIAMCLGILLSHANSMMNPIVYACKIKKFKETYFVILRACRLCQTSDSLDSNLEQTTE
# [6] = target: T6, Adenosine receptor A1 (Homo sapiens) (UniProt P30542); assay: Inhibition of [3H]NECA binding to human recombinant adenosine A1 receptor expressed in CHO cells at 10 uM after 60 mins by liquid scintillation counting; format: cell-based
# T6 sequence (whole entry): T3 sequence (P30542 whole entry)
# Adenosine receptor A2a [7] = target: T1, Adenosine receptor A2a; assay: Inhibition of [3H]CGS21680 binding to human adenosine A2A receptor expressed in HEK293 cells at 10 uM after 60 mins by liquid scintillation counting; format: cell-based
# [8] = target: T4, Adenosine receptor A3 (Homo sapiens); details: CHO, 10 uM
# Description: Inhibition of [125I]AB-MECA binding to human recombinant adenosine A3 receptor expressed in CHO cells at 10 uM after 60 mins by liquid scintillation counting
# [9] = target: T6, Adenosine receptor A1 (Homo sapiens); assay: Inhibition of [3H]CCPA binding to human recombinant adenosine A1 receptor expressed in CHO cells at 10 uM after 60 mins by liquid scintillation counting; format: cell-based
# Homo sapiens = organism: Homo sapiens; assay: Selectivity for human recombinant adenosine A3 receptor over human recombinant adenosine A2A receptor
# [10] = target: Adenosine receptors; A1 & A3 (Homo sapiens) (UniProt P30542+P0DMS8); assay: Selectivity for human recombinant adenosine A3 receptor over human recombinant adenosine A1 receptor
# Adenosine receptor A1 [11] = target: T3, Adenosine receptor A1; assay: Displacement of [3H]CCPA from human recombinant adenosine A1 receptor expressed in CHO cells after 60 mins by liquid scintillation counting; format: cell-based
# Adenosine receptor A3 [12] = target: T2, Adenosine receptor A3; assay: Agonist activity at human recombinant adenosine A3 receptor expressed in CHO cells assessed as inhibition of forskolin-stimulated cAMP production treated 45 mins before forskolin challenge measured after 15 mins by radioimmunoassay relative to NECA; format: functional, cell-based
# T1 sequence (P29274 whole entry): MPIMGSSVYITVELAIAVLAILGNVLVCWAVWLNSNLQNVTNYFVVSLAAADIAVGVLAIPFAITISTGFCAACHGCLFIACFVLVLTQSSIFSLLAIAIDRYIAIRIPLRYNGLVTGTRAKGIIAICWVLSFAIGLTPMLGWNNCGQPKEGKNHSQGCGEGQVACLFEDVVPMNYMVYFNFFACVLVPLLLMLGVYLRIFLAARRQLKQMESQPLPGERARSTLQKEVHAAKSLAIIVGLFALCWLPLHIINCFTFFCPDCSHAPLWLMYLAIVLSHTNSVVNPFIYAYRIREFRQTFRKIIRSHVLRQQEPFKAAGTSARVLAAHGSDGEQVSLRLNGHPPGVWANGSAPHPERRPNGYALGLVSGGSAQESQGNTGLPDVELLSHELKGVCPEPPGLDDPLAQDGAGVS
Compound,Ki (Adenosine receptor A2a [1]) [nM],Ki (Adenosine receptor A3 [2]) [nM],Efficacy [4] [%],inhibition [6] [%],inhibition (Adenosine receptor A2a [7]) [%],other results
O[C@@H]1[C@H](O)[C@@H]2C[C@@H]2[C@H]1n1cnc2c(NCc3cccc(I)c3)nc(F)nc21,4000,10.7,19,,,Ki (Adenosine receptor A1 [3]): 513 nM
O[C@@H]1[C@H](O)[C@@H]2C[C@@H]2[C@H]1n1cnc2c(NCc3cccc(Cl)c3)ncnc21,4520,4.9,58.3,,,Ki (Adenosine receptor A3 [5]): 20.3 nM; Ki (Adenosine receptor A1 [3]): 1600 nM
CNC(=O)[C@]12C[C@@H]1[C@@H](n1cnc3c(NCc4cccc(Cl)c4)nc(C#CCCCCC(=O)O)nc31)[C@H](O)[C@@H]2O,,12.4,74.4,11,38,
CNC(=O)[C@]12C[C@H]1[C@@H](n1cnc3c(NCc4cccc(Cl)c4)nc(C#CCCC(=O)NCCN)nc31)[C@@H](O)[C@H]2O,,,25.6,,8,inhibition [8]: 30%; inhibition [9]: 33%
CNC(=O)[C@]12C[C@@H]1[C@@H](n1cnc3c(NCc4cccc(Cl)c4)nc(C#CCCC(=O)OC)nc31)[C@H](O)[C@@H]2O,,5.5,90,41,43,
CNC(=O)[C@]12C[C@H]1[C@@H](n1cnc3c(NCc4cccc(Cl)c4)nc(C#CCCCCC(=O)NCCN)nc31)[C@@H](O)[C@H]2O,,4630,52,,5,inhibition [9]: 36%
CNC(=O)[C@]12C[C@@H]1[C@@H](n1cnc3c(NCc4cccc(Cl)c4)nc(C#CCCCCC(=O)OC)nc31)[C@H](O)[C@@H]2O,3540,11.1,85,20,,
CNC(=O)[C@]12C[C@@H]1[C@@H](n1cnc3c(NCc4cccc(Cl)c4)nc(C#CCCC(=O)NCCNCCN)nc31)[C@H](O)[C@@H]2O,890,15.4,87.6,33,,
CNC(=O)[C@]12C[C@@H]1[C@@H](n1cnc3c(NCc4cccc(Cl)c4)nc(C#CCCC(=O)O)nc31)[C@H](O)[C@@H]2O,,61.1,106,17,24,
CNC(=O)[C@]12C[C@@H]1[C@@H](n1cnc3c(NCc4cccc(Cl)c4)nc(C#CCCCCC(=O)NCCN)nc31)[C@H](O)[C@@H]2O,277,3.4,100,47,,
CNC(=O)[C@]12C[C@@H]1[C@@H](n1cnc3c(NC4CCCC4)nc(Cl)nc31)[C@H](O)[C@@H]2O,,,101,,,
O[C@@H]1[C@H](O)[C@@H]2C[C@@H]2[C@H]1n1cnc2c(NCc3cccc(I)c3)ncnc21,,,80.8,,,Ki (Adenosine receptor A1 [3]): 839 nM
NCCNC(=O)CCC#Cc1nc(NCc2cccc(Cl)c2)c2ncn([C@H]3[C@H](O)[C@H](O)[C@@H]4C[C@@H]43)c2n1,,404,0.9,15,35,fold change (FC) (Homo sapiens): > 20; fold change (FC) [10]: > 20
CNC(=O)[C@]12C[C@@H]1[C@@H](n1cnc3c(NCc4cccc(Cl)c4)nc(C#CCCCC(=O)OC)nc31)[C@H](O)[C@@H]2O,,,,,49,Ki (Adenosine receptor A1 [11]): 482 nM
O[C@@H]1[C@H](O)[C@@H]2C[C@@H]2[C@H]1n1cnc2c(NC3CCCC3)nc(Cl)nc21,1640,120,95.1,,,Ki (Adenosine receptor A1 [3]): 109 nM
CNC(=O)[C@]12C[C@@H]1[C@@H](n1cnc3c(NCc4cccc(Cl)c4)nc(C#CCCC(=O)NCCCN)nc31)[C@H](O)[C@@H]2O,979,3.1,97.9,31,,
CNC(=O)[C@]12C[C@@H]1[C@@H](n1cnc3c(NCc4cccc(Cl)c4)nc(C#CCCC(=O)NCCNC(=O)CCCC[C@H]4SC[C@H]5NC(=O)N[C@H]54)nc31)[C@H](O)[C@@H]2O,,36.4,84.5,1,51,IC50 (Adenosine receptor A3 [12]): 2.5 nM
CNC(=O)[C@]12C[C@@H]1[C@@H](n1cnc3c(NCc4cccc(Cl)c4)nc(C#CCCCC(=O)NCCN)nc31)[C@H](O)[C@@H]2O,,2.17,,,81,Ki (Adenosine receptor A1 [11]): 454 nM
CNC(=O)[C@]12C[C@@H]1[C@@H](n1cnc3c(NCc4cccc(Cl)c4)nc(C#CCCC(=O)NCCCCN)nc31)[C@H](O)[C@@H]2O,766,2.1,102,30,,Ki (Adenosine receptor A3 [5]): 8.68 nM; fold change (FC) (Homo sapiens): > 5000; fold change (FC) [10]: 360
"CNC(=O)C12C[C@@H]1[C@@H](n1cnc3c(NCc4cccc(Cl)c4)nc(C#CCCCC(=O)O)nc31)[C@H](O)[C@@H]2O (single isomer, unassigned)",,,,,,Ki (Adenosine receptor A3 [5]): 66.5 nM
CNC(=O)[C@]12C[C@@H]1[C@@H](n1cnc3c(NCc4cccc(I)c4)ncnc31)[C@H](O)[C@@H]2O,6200,2.4,100,,,Ki (Adenosine receptor A1 [11]): 700 nM
CNC(=O)[C@]12C[C@@H]1[C@@H](n1cnc3c(NCc4cccc(Cl)c4)nc(C#CCCC(=O)NCCN)nc31)[C@H](O)[C@@H]2O,550,2.5,96.9,,,Ki (Adenosine receptor A1 [3]): 2320 nM
O[C@@H]1[C@H](O)[C@@H]2C[C@@H]2[C@H]1n1cnc2c(NCc3cccc(I)c3)nc(Cl)nc21,,,44,,,EC50 (Adenosine receptor A3 [12]): 12 nM
CNC(=O)[C@]12C[C@@H]1[C@@H](n1cnc3c(NCc4cccc(Cl)c4)nc(C#CCCC(=O)NCCNC(=O)CCCCCNC(=O)CCCC[C@H]4SC[C@H]5NC(=O)N[C@H]54)nc31)[C@H](O)[C@@H]2O,,57.7,107,12,47,fold change (FC) (Homo sapiens): 66; fold change (FC) [10]: > 170
CNC(=O)[C@]12C[C@@H]1[C@@H](n1cnc3c(NCc4cccc(Cl)c4)nc(Cl)nc31)[C@H](O)[C@@H]2O,2300,,,,,Ki (Adenosine receptor A1 [11]): 260 nM
CNC(=O)[C@]12C[C@H]1[C@@H](n1cnc3c(NCc4cccc(Cl)c4)nc(C#CCCCC(=O)O)nc31)[C@@H](O)[C@H]2O,,,,,9,

# — ChEMBL document CHEMBL1154768 (J Med Chem, 2009)
